From ChEMBL document CHEMBL1201862, “PubChem BioAssay data set” (2004)
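The compound was tested at five concentrations on cells cultured in 96-well plates, with a 48-hour exposure period. GI50 marks 50% less growth.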 Calls of active or inactive are those of the source. No stated cut-off is given here; in the data, active = GI50 up to about 1.1 µM and inactive = higher.

How the values were obtained:
Assay in all cases: NCI-60 cell line screen, 48 h
786-0 = system: 786-0
BT-549 = system: BT-549
CAKI-1 = system: CAKI-1
COLO 205 = system: COLO 205
HCT-15 = system: HCT-15
HT-29 = system: HT-29
M14 = system: M14
MDA-MB-231 = system: MDA-MB-231
MDA-N = system: MDA-N
MOLT-4 = system: MOLT-4
NCI-H460 = system: NCI-H460
OVCAR-8 = system: OVCAR-8
PC-3 = system: PC-3
SK-MEL-28 = system: SK-MEL-28
SK-MEL-2 = system: SK-MEL-2
SK-MEL-5 = system: SK-MEL-5
SNB-75 = system: SNB-75
SW-620 = system: SW-620
UACC-62 = system: UACC-62
NCI-H522 = system: NCI-H522

SMILES | GI50 (786-0) | GI50 (BT-549) | GI50 (CAKI-1) | GI50 (COLO 205) | GI50 (HCT-15) [µM] | GI50 (HT-29) | GI50 (M14) | GI50 (MDA-MB-231) | GI50 (MDA-N) | GI50 (MOLT-4) | GI50 (NCI-H460) | GI50 (OVCAR-8) | GI50 (PC-3) | GI50 (SK-MEL-28) | GI50 (SK-MEL-2) | GI50 (SK-MEL-5) | GI50 (SNB-75) | GI50 (SW-620) | GI50 (UACC-62) | GI50 (NCI-H522)
COc1ccccc1C1c2cc3c(cc2OC2(OC)COC(=O)C12)OCO3 (configuration not stated) | 19.1 µM (inactive) | 17.9 µM (inactive) | 20 µM (inactive) | 6.56 µM (inactive) | 5.33 | 5.28 µM (inactive) | 8.2 µM (inactive) | 18.2 µM (inactive) | 2.24 µM (inactive) | 5.33 µM (inactive) | 15.3 µM (inactive) | 24.3 µM (inactive) | 12 µM (inactive) | 7.53 µM (inactive) | 7.43 µM (inactive) | 7.19 µM (inactive) | 7.16 µM (inactive) | 6.7 µM (inactive) | 6.04 µM (inactive) | 
O=c1[nH]nc(-c2ccccc2)n1/N=C/c1c(O)ccc2ccccc12 | 31.3 µM (inactive) | 45.7 µM (inactive) |  | 31.8 µM (inactive) | 42.6 | 86.5 µM (inactive) | 93.8 µM (inactive) | 83.6 µM (inactive) | 73.6 µM (inactive) | > 100 µM (inactive) |  | 48.6 µM (inactive) | 37.8 µM (inactive) | 75.7 µM (inactive) | 62.7 µM (inactive) | 30.2 µM (inactive) | 31.7 µM (inactive) | 37.8 µM (inactive) | 54.8 µM (inactive) | 91.2 µM (inactive)
C=CCSc1nn(CC=C)cc2ncnc1-2 | > 100 µM (inactive) | > 100 µM (inactive) | > 100 µM (inactive) | > 100 µM (inactive) | > 100 | > 100 µM (inactive) | > 100 µM (inactive) | > 100 µM (inactive) | > 100 µM (inactive) | > 100 µM (inactive) | > 100 µM (inactive) | > 100 µM (inactive) | > 100 µM (inactive) | > 100 µM (inactive) | > 100 µM (inactive) | > 100 µM (inactive) | > 100 µM (inactive) | > 100 µM (inactive) | > 100 µM (inactive) | 
CCOC(=O)/C=C\[C@H]1OC(C)(C)O[C@H]1[C@H](O)[C@H]1COC(C)(C)O1 | 19.4 µM (inactive) | 22 µM (inactive) | 2.57 µM (inactive) | 15.8 µM (inactive) | 17 | 20.7 µM (inactive) | 17.8 µM (inactive) | 17.6 µM (inactive) |  | 19.2 µM (inactive) | 27 µM (inactive) | 29.8 µM (inactive) | 20.7 µM (inactive) | 17.7 µM (inactive) | 22.3 µM (inactive) | 18.2 µM (inactive) | 2.57 µM (inactive) | 19.6 µM (inactive) | 23.7 µM (inactive) | 13.8 µM (inactive)
CC(=O)Nc1cc(/C=C\C(=O)N2CC(CCl)c3c2cc(N)c2ccccc32)n(C)n1 (configuration not stated) | 0.00143 µM (active) | 0.0199 µM (active) | 0.00129 µM (active) | 0.0235 µM (active) | 0.0233 |  | 0.0115 µM (active) | 0.045 µM (active) | 0.0185 µM (active) | 0.00201 µM (active) | < 0.001 µM (active) | 0.00168 µM (active) | 0.0233 µM (active) | 0.0144 µM (active) | 0.0166 µM (active) | 0.00269 µM (active) | 0.00165 µM (active) | 0.0123 µM (active) | 0.00423 µM (active) | 
COc1ccccc1NC(=S)Nc1cccc(C)n1 | 79.3 µM (inactive) | > 100 µM (inactive) | 88.5 µM (inactive) | > 100 µM (inactive) | > 100 | 45.3 µM (inactive) | > 100 µM (inactive) |  |  | > 100 µM (inactive) | > 100 µM (inactive) | > 100 µM (inactive) | > 100 µM (inactive) | > 100 µM (inactive) | > 100 µM (inactive) | > 100 µM (inactive) | 1.07 µM (active) | > 100 µM (inactive) | 42.4 µM (inactive) | 2.84 µM (inactive)
Cc1ccc(C(=O)c2[nH]c(Nc3cc(C)ccn3)c(C(=S)Nc3ccccc3)c2N)cc1 | > 100 µM (inactive) | > 100 µM (inactive) | > 100 µM (inactive) | > 100 µM (inactive) | > 100 | > 100 µM (inactive) | > 100 µM (inactive) | > 100 µM (inactive) | > 100 µM (inactive) | > 100 µM (inactive) | > 100 µM (inactive) | > 100 µM (inactive) |  | > 100 µM (inactive) | > 100 µM (inactive) | > 100 µM (inactive) | > 100 µM (inactive) | > 100 µM (inactive) | > 100 µM (inactive) | > 100 µM (inactive)
Clc1cc(Br)c2c3c(c(Br)cc(Cl)c13)C(Br)=C2Br | 22.1 µM (inactive) | 38.7 µM (inactive) |  |  | 18.6 | 25.2 µM (inactive) | 28.2 µM (inactive) | 28.1 µM (inactive) | 42.3 µM (inactive) | 19.8 µM (inactive) | 40.7 µM (inactive) | 31 µM (inactive) | 26.7 µM (inactive) | > 100 µM (inactive) | 29.9 µM (inactive) |  | 13.8 µM (inactive) | 34.2 µM (inactive) | 23.2 µM (inactive) | 17.2 µM (inactive)
Cc1ccccc1-n1c(=O)c2ncn(CCCl)c2n(-c2ccccc2C)c1=S | > 100 µM (inactive) | > 100 µM (inactive) | > 100 µM (inactive) | > 100 µM (inactive) | > 100 | > 100 µM (inactive) | > 100 µM (inactive) | > 100 µM (inactive) |  | > 100 µM (inactive) | > 100 µM (inactive) | > 100 µM (inactive) | 73.1 µM (inactive) | > 100 µM (inactive) | > 100 µM (inactive) | > 100 µM (inactive) | > 100 µM (inactive) | > 100 µM (inactive) | > 100 µM (inactive) | 38.5 µM (inactive)
CCOCc1c(C)cc(C)c(C2C(C(=O)c3ccccc3)N3c4ccccc4C=CC3C2(C#N)C(=O)OCC)c1C (configuration not stated) | 45 µM (inactive) | 28.1 µM (inactive) | 44 µM (inactive) | 19.1 µM (inactive) | 44.2 | 32.3 µM (inactive) | 36.5 µM (inactive) |  | 27.4 µM (inactive) | 86.5 µM (inactive) | 27.9 µM (inactive) |  | 25.8 µM (inactive) | 64.6 µM (inactive) |  | 14.8 µM (inactive) |  | 67.3 µM (inactive) | 31 µM (inactive) | 
COc1ccc(-c2cc(-c3cc4cc(Br)ccc4nc3Cl)c(C#N)c(N)n2)cc1 | > 12.5 µM (inactive) | > 12.5 µM (inactive) | > 12.5 µM (inactive) | > 12.5 µM (inactive) | > 12.5 | > 12.5 µM (inactive) | > 12.5 µM (inactive) |  | > 12.5 µM (inactive) | 9.66 µM (inactive) |  | > 12.5 µM (inactive) | > 12.5 µM (inactive) | > 12.5 µM (inactive) | > 12.5 µM (inactive) | > 12.5 µM (inactive) | > 12.5 µM (inactive) | > 12.5 µM (inactive) |  | > 12.5 µM (inactive)
COc1ccc(CNc2nc3ccccc3nc2C(=O)O)cc1OC | > 100 µM (inactive) | 30.7 µM (inactive) | > 100 µM (inactive) | > 100 µM (inactive) | 83.8 | > 100 µM (inactive) |  | > 100 µM (inactive) | > 100 µM (inactive) | > 100 µM (inactive) | > 100 µM (inactive) | > 100 µM (inactive) | > 100 µM (inactive) | > 100 µM (inactive) |  | > 100 µM (inactive) | > 100 µM (inactive) | > 100 µM (inactive) | > 100 µM (inactive) | > 100 µM (inactive)
CC(C)(C)OC(=O)NC1CCCC1C(O)(C1=CCCC1)C1=CCCC1 (configuration not stated) | > 100 µM (inactive) | > 100 µM (inactive) |  | > 100 µM (inactive) | > 100 | 76.2 µM (inactive) | > 100 µM (inactive) | 43.2 µM (inactive) | > 100 µM (inactive) | > 100 µM (inactive) | > 100 µM (inactive) | > 100 µM (inactive) | > 100 µM (inactive) | > 100 µM (inactive) | > 100 µM (inactive) | > 100 µM (inactive) | 48.1 µM (inactive) | > 100 µM (inactive) | 51.9 µM (inactive) | 
COc1ccc(N2C(=O)C3c4[nH]c5ccccc5c4C4CCC(C(C)(C)C)CC4C3C2=O)c(C)c1 (configuration not stated) | > 100 µM (inactive) | > 100 µM (inactive) | > 100 µM (inactive) | > 100 µM (inactive) | > 100 | > 100 µM (inactive) | > 100 µM (inactive) | > 100 µM (inactive) | > 100 µM (inactive) | > 100 µM (inactive) | > 100 µM (inactive) | > 100 µM (inactive) | > 100 µM (inactive) | > 100 µM (inactive) |  | > 100 µM (inactive) | > 100 µM (inactive) | > 100 µM (inactive) | > 100 µM (inactive) | > 100 µM (inactive)
COc1cc2c(cc1OC)-c1[nH]c3ccc([N+](=O)[O-])cc3c1CC(=O)N2 | 2.35 µM (inactive) | 3.15 µM (inactive) | 2.89 µM (inactive) | 0.325 µM (active) | 2.11 | 3.83 µM (inactive) | 5.38 µM (inactive) | 4.15 µM (inactive) | 4.48 µM (inactive) | 1.56 µM (inactive) | 1.95 µM (inactive) | 2.82 µM (inactive) | 3.29 µM (inactive) | 6.19 µM (inactive) | 3.7 µM (inactive) | 1.58 µM (inactive) | 2.43 µM (inactive) | 0.849 µM (active) | 5.4 µM (inactive) | 
